# Experimental data from ChEMBL document CHEMBL6182898, “Design, synthesis and bioevaluation of novel hydrazide derivatives as enhancers of immunotherapy and DNA-damage response in antitumor therapy” (Eur J Med Chem, 2025).
# Calls of active or inactive are those of the source. The calls are words filed in the database; no cut-off is given here.
# Legend:
# [1] = system: 4T1; assay: Synergistic induction of DNA damage in mouse 4T1 cells assessed as decrease in PARP1 level at 1 uM incubated for 24 hrs in presence of Olaparib by Western blot analysis; type: functional, cell-based
# [2] = system: 4T1; assay: Induction of DNA damage in mouse 4T1 cells assessed as increase in gamma-H2AX level at 2 uM incubated for 24 hrs by Western blot analysis; type: functional, cell-based
# [3] = system: 4T1; assay: Synergistic induction of DNA damage in mouse 4T1 cells assessed as increase in gamma-H2AX level at 1 uM incubated for 24 hrs in presence of Olaparib by Western blot analysis; type: functional, cell-based
# [4] = system: 4T1; assay: Induction of DNA damage in mouse 4T1 cells assessed as increase in gamma-H2AX level at 5 uM by immunofluorescence based analysis; type: functional, cell-based
# [5] = AUC (0 to t) in male Sprague-Dawley rat at 2 mg/kg, iv measured for 0.083 to 12 hrs by LC-MS/MS analysis; type: ADME, organism-based; details: in vivo, time 0.083-12 hrs
# [6] = AUMC (0 to t) in male Sprague-Dawley rat at 2 mg/kg, iv measured for 0.083 to 12 hrs by LC-MS/MS analysis; type: ADME, organism-based; details: in vivo, time 0.083-12 hrs
# [7] = AUMC (0 to infinity) in male Sprague-Dawley rat at 2 mg/kg, iv measured for 0.083 to 12 hrs by LC-MS/MS analysis; type: ADME, organism-based; details: in vivo, time 0.083-12 hrs
# [8] = MRT (0 to t) in male Sprague-Dawley rat at 2 mg/kg, iv measured for 0.083 to 12 hrs by LC-MS/MS analysis; type: ADME, organism-based; details: in vivo, time 0.083-12 hrs
# [9] = MRT (0 to infinity) in male Sprague-Dawley rat at 2 mg/kg, iv measured for 0.083 to 12 hrs by LC-MS/MS analysis; type: ADME, organism-based; details: in vivo, time 0.083-12 hrs
# [10] = VRT (0 to t) in male Sprague-Dawley rat at 2 mg/kg, iv measured for 0.083 to 12 hrs by LC-MS/MS analysis; type: ADME, organism-based; details: in vivo, time 0.083-12 hrs
# [11] = Clearance in male Sprague-Dawley rat at 2 mg/kg, iv measured for 0.083 to 12 hrs by LC-MS/MS analysis; type: ADME, organism-based; details: in vivo, time 0.083-12 hrs
# [12] = AUMC (0 to t) in male Sprague-Dawley rat at 20 mg/kg, po measured for 0.083 to 12 hrs by LC-MS/MS analysis; type: ADME, organism-based; details: in vivo, time 0.083-12 hrs
# [13] = MRT (0 to t) in male Sprague-Dawley rat at 20 mg/kg, po measured for 0.083 to 12 hrs by LC-MS/MS analysis; type: ADME, organism-based; details: in vivo, time 0.083-12 hrs
# [14] = Oral bioavailability in male Sprague-Dawley rat at 20 mg/kg measured for 0.083 to 12 hrs by LC-MS/MS analysis; type: ADME, organism-based; details: in vivo, time 0.083-12 hrs
# [15] = system: B16-F10; assay: Antitumor activity against mouse B16-F10 cells implanted in male C57BL/6J mouse at 50 mg/kg, IG treated for 14 days consecutively relative to control; type: functional; details: B16-F10, po, 336 h, time 14 day, read-out: TGI
# [16] = system: B16-F10; assay: Antitumor activity against mouse B16-F10 cells implanted in male C57BL/6J mouse at 25 mg/kg, IG treated for 14 days consecutively in presence of NP-19 relative to control; type: functional; details: B16-F10, po, 336 h, time 14 day, read-out: TGI
# [17] = Toxicity in male C57BL/6J mouse implanted with mouse B16-F10 cells assessed as histopathological damage in liver at 50 mg/kg, IG treated for 14 days consecutively by H and E staining based analysis; type: organism-based; details: in vivo, po, 336 h, time 14 day
# [18] = Toxicity in male C57BL/6J mouse implanted with mouse B16-F10 cells assessed as histopathological damage in liver at 25 mg/kg, IG treated for 14 days consecutively in presence of NP-19 by H and E staining based analysis; type: organism-based; details: in vivo, po, 336 h, time 14 day
# [19] = system: B16-F10; assay: Induction of antitumor immunity in mouse B16-F10 cells implanted in male C57BL/6J mouse assessed as CD3+CD4+ T cell infiltration at 50 mg/kg, IG treated for 14 days consecutively by flow cytometry (reference value: 7.4 %); type: functional; details: time 14 day
# [20] = system: B16-F10; assay: Induction of antitumor immunity in mouse B16-F10 cells implanted in male C57BL/6J mouse assessed as CD3+CD8+ T cell infiltration at 50 mg/kg, IG treated for 14 days consecutively by flow cytometry (reference value: 10 %); type: functional; details: time 14 day
# [21] = system: B16-F10; assay: Induction of antitumor immunity in mouse B16-F10 cells implanted in male C57BL/6J mouse assessed as increase in T cell infiltration at 25 mg/kg, IG treated for 14 days consecutively in presence of NP-19 by immunofluorescence based analysis; type: functional, organism-based; details: time 14.0 day
# [22] = system: Mus musculus; assay: Effect on Ac-alpha-tubulin in mouse B16-F10 cells implanted in male C57BL/6J mouse at 50 mg/kg, IG treated for 14 days consecutively by Western blot analysis; type: functional, organism-based; details: time 14.0 day
# [23] = biological target: T1, Histone deacetylase 3 (Mus musculus) (UniProt O88895); assay: In vivo inhibition of HDAC3 in mouse B16-F10 cells implanted in male C57BL/6J mouse assessed as increase in Ac-H3 level at 25 mg/kg, IG treated for 14 days consecutively in presence of NP-19 by immunofluorescence based analysis; type: functional, organism-based; details: time 14.0 day
# T1 sequence (whole entry): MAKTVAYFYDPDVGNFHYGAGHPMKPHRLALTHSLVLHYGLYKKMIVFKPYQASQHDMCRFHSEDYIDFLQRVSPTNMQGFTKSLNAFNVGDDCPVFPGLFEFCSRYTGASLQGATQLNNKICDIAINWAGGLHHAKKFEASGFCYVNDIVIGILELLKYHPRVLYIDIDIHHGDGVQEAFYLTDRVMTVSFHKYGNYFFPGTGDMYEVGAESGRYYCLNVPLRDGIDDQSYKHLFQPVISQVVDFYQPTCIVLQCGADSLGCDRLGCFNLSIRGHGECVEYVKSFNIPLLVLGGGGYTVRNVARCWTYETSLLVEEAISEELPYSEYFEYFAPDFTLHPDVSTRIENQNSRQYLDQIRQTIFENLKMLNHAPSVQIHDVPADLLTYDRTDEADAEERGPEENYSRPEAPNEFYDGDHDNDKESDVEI
# [24] = biological target: T1, Histone deacetylase 3 (Mus musculus); assay: In vivo inhibition of HDAC3 in mouse B16-F10 cells implanted in male C57BL/6J mouse assessed as decrease in PD-L1 level at 50 mg/kg, IG treated for 14 days consecutively by immunofluorescence based analysis; type: functional, organism-based; details: time 14.0 day
# [25] = system: 4T1; assay: Synergistic antitumor activity against mouse 4T1 cells implanted in mouse at 25 mg/kg/day in presence of olaparib relative to control; type: functional; details: read-out: TGI
# [26] = system: 4T1; assay: Synergistic induction of DNA damage in mouse 4T1 cells implanted in mouse assessed as decrease in PARP level at 25 mg/kg/day in presence of olaparib by Western blot analysis; type: functional, organism-based
# [27] = system: 4T1; assay: Synergistic induction of DNA damage in mouse 4T1 cells implanted in mouse assessed as increase in gamma-H2AX level at 25 mg/kg/day in presence of olaparib by Western blot analysis; type: functional, organism-based
# [28] = system: 4T1; assay: Synergistic induction of DNA damage in mouse 4T1 cells implanted in mouse assessed as decrease in PARP level at 25 mg/kg/day in presence of olaparib by immunofluorescence based analysis; type: functional, organism-based
smiles,measurement,setting,value
CCCNNC(=O)CCCCCCNC(=O)c1cnc(-c2ccc(NC(=O)OC(C)(C)C)cc2)s1,Activity,[1],Active
same,Activity,[2],Active
same,Activity,[3],Active
same,Activity,[4],Active
same,AUC(0-t),[5],657 ng·h/mL
same,AUMCt,[6],223.08 hr.hr.ug/L
same,AUMC,[7],238.68 hr.hr.ug/L
same,MRT last,[8],20.4 min
same,MRT inf,[9],22.2 min
same,VRT(t),[10],0.55 h²
same,clearance,[11],53.8 mL/min/kg
same,AUMCt,[12],77.04 hr.hr.ug/L
same,MRT last,[13],154 min
same,bioavailability,[14],0.49%
same,inhibition in vivo at 50 mg/kg,[15],59%
same,inhibition in vivo at 25 mg/kg,[16],65%
same,Activity,[17],Non-toxic
same,Activity,[18],Non-toxic
same,Activity,[19],12%
same,Activity,[20],22%
same,Activity,[21],Active
same,Activity,[22],No effect
same,inhibition,[23],Active
same,inhibition,[24],Active
same,inhibition in vivo at 25 mg/kg/day,[25],88%
same,Activity,[26],Active
same,Activity,[27],Active
same,Activity,[28],Active
